Results published in US20060067991A1 (priority 2004, published 2006).

Columns and labels:
[1] = system: enzymes produced by S. aureus MN8; experiment: Breakdown of test compounds by enzymes produced by S. aureus MN8, GC/MS of culture fluid; assay type: in vitro ADME; conditions: concentrations of b130; for course of the concentration of the dominant compound over time: GC/MS at 3, 6, 9 and 24 hours; for dominant compound found in the culture fluid: GC/MS, undiluted solutions at 3, 6, 9 and 24 hours
Description: (§1) The test compounds, in the desired concentrations, were placed in 100 mL of a growth medium in a sterile, 500 mL Corning Fleaker (Fisher Scientific, Pittsbury, Pa.). The growth medium and inoculum were prepared as in Example 1.
(§2) The test compounds were added to the growth medium in the amount necessary to obtain the desired final concentration.
(§3) Each fleaker was inoculated with the amount of inoculum determined as described above. The fleakers were capped with sterile aluminum foil and incubated at 35° C. in atmospheric air in a Lab-Line orbital water bath (available from VWR Scientific Products, McGaw Park, Ill.) at 180 rpm. Fifteen milliliter samples were removed at 3, 6, 9, and 24 hours. The optical density (595 nm) of the culture fluid was determined and the culture fluid collected at 24 hours was assayed for the number of colony forming units of S. aureus MN8 using standard plate count procedures.
In preparation for analysis of the integrity of the test compounds, the culture fluid was centrifuged at 3000 rpm at 2-10° C. for 15 minutes. The supernatant was filter sterilized through an AUTOVIAL 5 syringeless filter, […] pore size (available from Whatman, Inc., Clifton, N.J.). The resulting fluid was frozen at −70° C. in a FISHERBRAND (12 mm×75 mm) polystyrene culture tube (Fisher Scientific, Pittsburgh, Pa.) until chemical analysis could be performed.
Using an Agilent Technologies 5973N GC/MS, analysis was performed on undiluted solutions at 3, 6, 9, and 24 hours to evaluate the ability of S. aureus MN8 to breakdown the test compounds. Based on the analysis, the control sample, which had no test compounds added, comprised mostly acetic acid at all time intervals.

[2] = system: enzymes produced by S. aureus MN8; experiment: Breakdown of test compounds by S. aureus MN8, liquid chromatography of culture fluid; assay type: in vitro ADME; conditions: 6 hour and 24 hour samples, UV 230 nm
Description: as §1, §2, §3
In preparation for analysis of the integrity of the test compounds, the culture fluid was centrifuged at 3000 rpm at 2-10° C. for 15 minutes. […]
Additional analysis of the 6 hour and 24 hour samples was conducted by liquid chromatography. […] The dilutions were then analyzed using an ion exclusion column to achieve the separation. Detection of the compounds was accomplished through UV absorbance at 230 nm.

| SMILES | course of the concentration of the dominant compound over time [1] | dominant compound found in the culture fluid [1] | breakdown to the active species [2] |
| --- | --- | --- | --- |
| CC(C)CC(NC(=O)c1ccccc1)C(=O)O (racemic) [N-benzoyl-DL-leucine, N-Benzoyl-DL-Leucine] | decreasing concentration over time | benzoic acid | breakdown to benzoic acid |
| OCc1ccccc1 [Benzyl alcohol, benzyl alcohol] | decreased over time | benzyl alcohol | – |
| O=C(O)c1ccccc1 [benzoic acid] | decreased over time | benzoic acid | – |
